# Legend:
# sugar beet = assay: Test B pre/postemergence sugar beet; format: in vivo, Beta vulgaris
# How it was run: (§1)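 Response is a visual 0-to-10 score relative to untreated plants, where 0 means no effect and 10 means complete control, taken twelve to sixteen days after application. Treatments went onto soil at planting and onto foliage of 1- to 4-leaf plants, using a surfactant-containing non-phytotoxic solvent.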
# wheat = assay: Test B pre/postemergence wheat; format: in vivo, Triticum aestivum
# How it was run: as §1
# soybean = assay: Test B pre/postemergence soybean; format: in vivo, Glycine max
# How it was run: as §1
# giant foxtail = assay: Test B pre/postemergence giant foxtail; format: in vivo, Setaria faberii
# How it was run: as §1
# surinam grass = assay: Test B pre/postemergence surinam grass; format: in vivo, Brachiaria decumbens
# How it was run: as §1
# bamyardgrass = assay: Test B flood test barnyardgrass; format: in vivo, Echinochloa crus-galli; settings: for Plant response rating, Barnyardgrass: scale 0 to 10, 0 is no effect, 10 is complete control; for Barnyardgrass plant response rating: scale of 0 to 10 where 0 is no effect and 10 is complete control
# How it was run: (§2)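 Flood test on plants grown to the 2-leaf stage; treated plants kept in greenhouse twelve to sixteen days, then visually rated against controls on a 0 (no effect) to 10 (complete control) scale.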
# pigweed = assay: Test B pre/postemergence pigweed; format: in vivo, Amaranthus retroflexus
# How it was run: as §1
# corn = assay: Test B pre/postemergence corn; format: in vivo, Zea mays
# How it was run: as §1
# velvetleaf = assay: Test B pre/postemergence velvetleaf; format: in vivo, Abutilon theophrasti
# How it was run: as §1
# wild oat = assay: Test B pre/postemergence wild oat; format: in vivo, Avena fatua
# How it was run: as §1
# rape = assay: Test B pre/postemergence rape; format: in vivo, Brassica napus
# How it was run: as §1
# purple nutsedge = assay: Test B pre/postemergence purple nutsedge; format: in vivo, Cyperus rotundus
# How it was run: as §1
# duck salad = assay: Test B flood test duck salad; format: in vivo, Heteranthera limosa; settings: for Plant response rating, Ducksalad: scale 0 to 10, 0 is no effect, 10 is complete control; for Ducksalad plant response rating: scale of 0 to 10 where 0 is no effect and 10 is complete control
# How it was run: as §2
# morningglory = assay: Test B pre/postemergence morningglory; format: in vivo, Ipomoea hederacea
# How it was run: as §1
# blackgrass = assay: Test B pre/postemergence blackgrass; format: in vivo, Alopecurus myosuroides
# How it was run: as §1
# crabgrass = assay: Test B pre/postemergence crabgrass; format: in vivo, Digitaria sanguinalis
# How it was run: as §1
# rice = assay: Test B flood test rice; format: in vivo, Oryza sativa
# How it was run: as §2
# smallflower flatsedge = assay: Test B flood test smallflower flatsedge; format: in vivo, Cyperus difformis
# How it was run: as §2
# cocklebur = assay: Test B pre/postemergence cocklebur; format: in vivo, Xanthium strumarium
# How it was run: as §1
# [1] = Postemergence, Rate 250 g/ha, scale 0 to 10, 0 is no effect, 10 is complete control
# [2] = Postemergence, Rate 500 g/ha, scale of 0 to 10 where 0 is no effect and 10 is complete control
# [3] = Preemergence, Rate 62 g/ha, scale 0 to 10 (0 no effect, 10 complete control)
# [4] = Preemergence, Rate 125 g/ha, scale of 0 to 10 where 0 is no effect and 10 is complete control
# [5] = Preemergence, Rate 250 g/ha, scale 0 to 10, 0 is no effect, 10 is complete control
# [6] = Preemergence, Rate 500 g/ha, scale 0 to 10, 0 is no effect, 10 is complete control
# [7] = Postemergence, Rate 125 g/ha, scale 0 to 10, 0 is no effect, 10 is complete control
# [8] = Rate 62 g/ha, Postemergence, scale of 0 to 10 where 0 is no effect and 10 is complete control
# [9] = Preemergence, Rate 250 g/ha, scale of 0 to 10 where 0 is no effect and 10 is complete control
# [10] = Postemergence (flood test), Rate 125 g/ha
# [11] = Postemergence section (flood test species), Rate 500 g/ha
# [12] = Rate 62 g/ha, Postemergence (flood test species)
# [13] = flood test species, listed under Postemergence, Rate 250 g/ha
# [14] = Postemergence section (flood test species), Rate 500 g/ha, scale of 0 to 10 where 0 is no effect and 10 is complete control
# [15] = flood test species, listed under Postemergence, Rate 250 g/ha, scale 0 to 10, 0 is no effect, 10 is complete control
structure (smiles),measurement,setting,value
CC(C)N(C(=O)n1oc(=O)n(CCBr)c1=O)c1ccccc1 [Compound 415],"Plant response rating, Sugarbeets",sugar beet; [1],0
same,Sugarbeets plant response rating,sugar beet; [2],0
same,"Plant response rating, Sugarbeets",sugar beet; [3],0
same,"Plant response rating, Sugarbeets",sugar beet; [4],0
same,Sugarbeets plant response rating,sugar beet; [5],6
same,Sugarbeets plant response rating,sugar beet; [6],8
same,Wheat plant response rating,wheat; [2],3
same,"Plant response rating, Wheat",wheat; [3],0
same,"Plant response rating, Wheat",wheat; [4],0
same,Wheat plant response rating,wheat; [5],2
same,Wheat plant response rating,wheat; [6],3
same,"Plant response rating, Soybean",soybean; [1],4
same,Soybean plant response rating,soybean; [2],7
same,"Plant response rating, Soybean",soybean; [3],0
same,"Plant response rating, Soybean",soybean; [4],0
same,Soybean plant response rating,soybean; [5],0
same,Soybean plant response rating,soybean; [6],0
same,"Plant response rating, Giant foxtail",giant foxtail; [7],8
same,"Plant response rating, Giant foxtail",giant foxtail; [1],9
same,Giant foxtail plant response rating,giant foxtail; [2],9
same,"Plant response rating, Giant foxtail",giant foxtail; [3],9
same,"Plant response rating, Giant foxtail",giant foxtail; [4],10
same,Giant foxtail plant response rating,giant foxtail; [5],10
same,Giant foxtail plant response rating,giant foxtail; [6],10
same,Giant foxtail plant response rating,giant foxtail; [8],5
same,"Plant response rating, B. signalgrass",surinam grass; [7],0
same,"Plant response rating, B. signalgrass",surinam grass; [1],2
same,B. signalgrass plant response rating,surinam grass; [2],6
same,"Plant response rating, B. signalgrass",surinam grass; [3],2
same,"Plant response rating, B. signalgrass",surinam grass; [4],3
same,B. signalgrass plant response rating,surinam grass; [9],6
same,B. signalgrass plant response rating,"surinam grass; Preemergence, Rate 500 g/ha, scale of 0 to 10 where 0 is no effect and 10 is complete control",6
same,B. signalgrass plant response rating,surinam grass; [8],0
same,"Plant response rating, Barnyardgrass",bamyardgrass; [10],0
same,Barnyardgrass plant response rating,bamyardgrass; [11],0
same,Barnyardgrass plant response rating,bamyardgrass; [12],0
same,"Plant response rating, Barnyardgrass",bamyardgrass; [13],0
same,"Plant response rating, Redroot pigweed",pigweed; [1],0
same,Redroot pigweed plant response rating,pigweed; [2],3
same,"Plant response rating, Redroot pigweed",pigweed; [3],0
same,"Plant response rating, Redroot pigweed",pigweed; [4],0
same,Redroot pigweed plant response rating,pigweed; [5],6
same,Redroot pigweed plant response rating,pigweed; [6],10
same,"Plant response rating, Corn",corn; [7],0
same,"Plant response rating, Corn",corn; [1],1
same,Corn plant response rating,corn; [2],2
same,"Plant response rating, Corn",corn; [3],0
same,"Plant response rating, Corn",corn; [4],2
same,Corn plant response rating,corn; [5],3
same,Corn plant response rating,corn; [6],4
same,Corn plant response rating,corn; [8],0
same,"Plant response rating, Velvetleaf",velvetleaf; [1],2
same,Velvetleaf plant response rating,velvetleaf; [2],2
same,"Plant response rating, Velvetleaf",velvetleaf; [3],0
same,"Plant response rating, Velvetleaf",velvetleaf; [4],2
same,Velvetleaf plant response rating,velvetleaf; [5],6
same,Velvetleaf plant response rating,velvetleaf; [6],7
same,Wild oats plant response rating,wild oat; [2],3
same,"Plant response rating, Wild oats",wild oat; [3],0
same,"Plant response rating, Wild oats",wild oat; [4],3
same,Wild oats plant response rating,wild oat; [5],6
same,Wild oats plant response rating,wild oat; [6],6
same,"Plant response rating, Rape",rape; [1],0
same,Rape plant response rating,rape; [2],1
same,"Plant response rating, Rape",rape; [3],2
same,"Plant response rating, Rape",rape; [4],6
same,Rape plant response rating,rape; [5],10
same,Rape plant response rating,rape; [6],10
same,"Plant response rating, Nutsedge",purple nutsedge; [1],0
same,Nutsedge plant response rating,purple nutsedge; [2],0
same,"Plant response rating, Nutsedge",purple nutsedge; [3],0
same,"Plant response rating, Nutsedge",purple nutsedge; [4],0
same,Nutsedge plant response rating,purple nutsedge; [5],0
same,Nutsedge plant response rating,purple nutsedge; [6],0
same,"Plant response rating, Ducksalad",duck salad; [10],0
same,Ducksalad plant response rating,duck salad; [11],0
same,Ducksalad plant response rating,duck salad; [12],0
same,"Plant response rating, Ducksalad",duck salad; [13],0
same,"Plant response rating, Morningglory",morningglory; [1],6
same,Morningglory plant response rating,morningglory; [2],7
same,"Plant response rating, Morningglory",morningglory; [3],0
same,"Plant response rating, Morningglory",morningglory; [4],0
same,Morningglory plant response rating,morningglory; [5],0
same,Morningglory plant response rating,morningglory; [6],0
same,"Plant response rating, Blackgrass",blackgrass; [7],3
same,"Plant response rating, Blackgrass",blackgrass; [1],8
same,Blackgrass plant response rating,blackgrass; [2],9
same,"Plant response rating, Blackgrass",blackgrass; [3],5
same,"Plant response rating, Blackgrass",blackgrass; [4],5
same,Blackgrass plant response rating,blackgrass; [9],9
same,Blackgrass plant response rating,blackgrass; [6],9
same,Blackgrass plant response rating,blackgrass; [8],0
same,"Plant response rating, Crabgrass",crabgrass; [7],1
same,"Plant response rating, Crabgrass",crabgrass; [1],8
same,Crabgrass plant response rating,crabgrass; [2],9
same,"Plant response rating, Crabgrass",crabgrass; [3],8
same,"Plant response rating, Crabgrass",crabgrass; [4],8
same,Crabgrass plant response rating,crabgrass; [5],9
same,Crabgrass plant response rating,crabgrass; [6],10
same,Crabgrass plant response rating,crabgrass; [8],0
same,Rice plant response rating,rice; [14],0
same,"Plant response rating, Rice",rice; [15],0
same,S. Flatsedge plant response rating,smallflower flatsedge; [14],3
same,"Plant response rating, S. Flatsedge",smallflower flatsedge; [15],3
same,"Plant response rating, Cocklebur",cocklebur; [7],0
same,"Plant response rating, Cocklebur",cocklebur; [1],1
same,Cocklebur plant response rating,cocklebur; [2],4
same,"Plant response rating, Cocklebur",cocklebur; [3],0
same,"Plant response rating, Cocklebur",cocklebur; [4],0
same,Cocklebur plant response rating,cocklebur; [5],0
same,Cocklebur plant response rating,cocklebur; [6],0
same,Cocklebur plant response rating,cocklebur; [8],0
